ChEMBL document CHEMBL1134161, “Stereospecific synthesis of (2S)-2-methyl-3-(2',6'-dimethyl-4'-hydroxyphenyl)-propionic acid (Mdp) and its incorporation into an opioid peptide” (Bioorg Med Chem Lett, 2001)
Peptide text beside a SMILES is read from it. * marks the point of attachment. X1 = Cc1cc(O)cc(C)c1C[C@H](C)C(=O)*

Legend:
Cavia porcellus [1] = species on record: Cavia porcellus; test: In vitro inhibition of electrically evoked contractions of guinea pig ileum(GPI); type: functional
[2] = target: Kappa-type opioid receptor (Homo sapiens, UniProt P41145); test: Tested for binding affinity towards Opioid receptor kappa 1
Mus musculus [3] = species on record: Mus musculus; test: In vitro inhibition of electrically evoked contractions of mouse vas deferens(MVD); type: functional, organism-based
Cavia porcellus [4] = species on record: Cavia porcellus; test: Tested for antagonistic activity against Mu agonist TAPP in the GPI assay; type: functional
Mus musculus [5] = species on record: Mus musculus; test: Tested for antagonistic activity against Delta agonist DPDPE in the MVD assay; type: functional

Chain of Kappa-type opioid receptor (P41145 whole entry): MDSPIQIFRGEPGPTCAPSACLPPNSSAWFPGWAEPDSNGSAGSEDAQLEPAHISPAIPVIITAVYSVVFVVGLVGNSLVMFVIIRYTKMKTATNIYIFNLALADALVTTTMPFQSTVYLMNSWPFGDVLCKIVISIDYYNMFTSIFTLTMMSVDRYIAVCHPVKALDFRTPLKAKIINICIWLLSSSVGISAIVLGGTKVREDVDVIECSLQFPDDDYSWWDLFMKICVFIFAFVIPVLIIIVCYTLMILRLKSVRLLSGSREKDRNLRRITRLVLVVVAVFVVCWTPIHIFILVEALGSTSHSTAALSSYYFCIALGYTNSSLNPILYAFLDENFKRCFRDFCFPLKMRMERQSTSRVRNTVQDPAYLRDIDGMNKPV

Row | Structure (SMILES) | IC50 (Cavia porcellus [1]) [nM] | Ki [2] [nM] | IC50 (Mus musculus [3]) [nM] | Ke (Cavia porcellus [4]) [nM] | Ke (Mus musculus [5]) [nM]
1 | Cc1cc(O)cc(C)c1C[C@H](N)C(=O)N[C@@H](C)C(=O)NCC(=O)N[C@@H](Cc1ccccc1)C(=O)N[C@@H](CC(C)C)C(N)=O | 0.586 | > 10000 | 0.212 |  | 
2 | Cc1cc(O)cc(C)c1C[C@H](C)C(=O)N[C@@H](C)C(=O)NCC(=O)N[C@@H](Cc1ccccc1)C(=O)N[C@@H](CC(C)C)C(N)=O (X1-AGFL-NH2) |  | > 10000 |  | 154 | 28.1
